Test results from patent US10548984B2 (priority 2015, dated 2020).
Non-standard residues stand in square brackets, D forms with d. Residues, ends and D or L forms follow the SMILES beside them.

Key:
[1] = tested on: nAchRs present on M17 cells; test: Competitive binding assay and immunocytochemistry of biotinylated peptide on M17 cells; parameters: species or system human; details: avidin-FITC
Description: To confirm that the binding specificity of the peptide to the neuronal cells was mediated by its binding to nAchRs, a competition assay was performed using alpha bangarotoxin (BTX) peptide, which is a competitive antagonist for nAchRs.
M17 cells were incubated with the biotinylated-peptide (SEQ ID NO:2) (2.5 μM) in the absence or presence of BTX peptide (0.01 μM or 0.1 μM) at 4° C. for 1 hr, stained with avidin-FITC and analyzed by FACS.
Immunocytochemistry was used to confirm the binding of the peptide (SEQ ID NO:2) to M17 cells. M17 cells were incubated with or without biotinylated-peptides (SEQ ID NO:2) or with the MAT peptide which served as a negative control. The cells were then stained with avidin-FITC and viewed by fluorescence microscopy.

mice [2] = test: Immunogenicity study (serum antibody ELISA); format: in vivo, mouse; details: i.v. injection
Description: Mice were injected intravenously with 50 μg of siRNA complexed with either the Test-Peptide or Test-RI Peptide vectors, with the peptide vector alone or with PBS as negative control for three consecutive days, and then on every alternate day for 14 days. […] To detect the presence of antibodies to the Test-Peptide or Test-RI-peptide, serum was collected from the mice on day 21 and serial double dilution (1:100 followed by 10 dilutions) of the sera was incubated in 384 well microtitre plate coated with either Test-Peptide or Test-RI-peptide (50 ng/well). The bound antibody was detected with a goat anti-mouse Ig-HRP conjugate.

mice [3] = details: mouse, in vivo

Compound	inhibition of biotinylated-peptide (SEQ ID NO:2) binding to M17 cells ([1]; peptide 2.5 μM, BTX 0.01 μM or 0.1 μM, 4° C., 1 hr, FACS)	antibody response (mice [2])	production of inflammatory cytokines (mice [3])	binding of peptide to M17 cells (FITC-positive immunostaining) ([1]; biotinylated peptide, fluorescence microscopy)
alpha bangarotoxin [BTX, reference compound]	inhibited peptide binding to M17 cells in a dose-dependent manner	–	–	–
CC[C@@H](C)[C@@H](NC(=O)[C@@H](Cc1ccccc1)NC(=O)[C@H](NC(=O)[C@@H](CC(N)=O)NC(=O)[C@@H](CO)NC(=O)[C@@H](CCCNC(=N)N)NC(=O)CNC(=O)[C@@H](CCCCN)NC(=O)CN(C)C(=O)CN(C)C(=O)CN(C)C(=O)CN(C)C(=O)[C@@H](CCCNC(=N)N)NC(=O)[C@@H](CCCNC(=N)N)NC(=O)[C@@H](CCCNC(=N)N)NC(=O)[C@@H](CCCNC(=N)N)NC(=O)[C@@H](CCCNC(=N)N)NC(=O)[C@@H](CCCNC(=N)N)NC(=O)[C@@H](CCCNC(=N)N)NC(=O)[C@@H](CCCNC(=N)N)NC(=O)[C@H](N)CCCNC(=N)N)[C@H](C)O)C(=O)N[C@H](CC(=O)O)C(=O)N[C@H](CS)C(=O)O [Test-RI-peptide, H-rrrrrrrrr-Sar-Sar-Sar-Sar-kGrsntfidc]	–	did not elicit an antibody response	did not elicit an antibody response or result in the production inflammatory cytokines	–
CC[C@H](C)[C@H](NC(=O)[C@H](CC(=O)O)NC(=O)[C@@H](N)CS)C(=O)N[C@@H](Cc1ccccc1)C(=O)N[C@H](C(=O)N[C@@H](CC(N)=O)C(=O)N[C@@H](CO)C(=O)N[C@@H](CCCNC(=N)N)C(=O)NCC(=O)N[C@@H](CCCCN)C(=O)NCC(=O)NCC(=O)NCC(=O)NCC(=O)N[C@H](CCCNC(=N)N)C(=O)N[C@H](CCCNC(=N)N)C(=O)N[C@H](CCCNC(=N)N)C(=O)N[C@H](CCCNC(=N)N)C(=O)N[C@H](CCCNC(=N)N)C(=O)N[C@H](CCCNC(=N)N)C(=O)N[C@H](CCCNC(=N)N)C(=O)N[C@H](CCCNC(=N)N)C(=O)N[C@H](CCCNC(=N)N)C(=O)O)[C@@H](C)O [Test-peptide] (H-CDIFTNSRGKGGGG[dR][dR][dR][dR][dR][dR][dR][dR][dR]-OH; C-terminus assumed)	–	did not elicit an antibody response	did not elicit an antibody response or result in the production inflammatory cytokines	–
CDIFTNSRGK [peptide (SEQ ID NO:2), RVG derived 10 residue peptide]	–	–	–	binds specifically to neuronal cells
